Paper PMC9000418 (Molecules, 2022)
Like-named read-outs stand apart in the source and are kept apart here.

Columns and labels:
AChE = AChE (Electrophorus electricus, UniProt O42275); test: AChE inhibition, in vitro modified Ellman's spectrophotometric method; assay type: biochemical; conditions: read-out: AChE % Inhibition
Excerpt: The assay was completed in two steps.
The reagents and materials used in the enzyme inhibition assay were supplied commercially by Sigma-Aldrich (St. Louis, MO, USA) and Fluka (Steinheim, Germany). The cholinesterase enzyme inhibition procedure was applied as reported in our previous research papers.

BChE = assay type: biochemical
Method: The inhibitory activities of all of the obtained chalcone derivatives (3a–3j) against cholinesterase enzymes were evaluated using the previously described in vitro modified Ellman’s spectrophotometric method.
The assay was completed in two steps. […].
[…]. The reagents and materials used in the enzyme inhibition assay were supplied commercially by Sigma-Aldrich (St. Louis, MO, USA) and Fluka (Steinheim, Germany). The cholinesterase enzyme inhibition procedure was applied as reported in our previous research papers.

[1] = DPPH free radical scavenging antioxidant activity
Excerpt: This activity method is a method based on measuring the scavenging effects of the DPPH• (1,1-Diphenyl-2-picrylhydrazil) radical, which is a stable organic nitrogen radical of antioxidants. One of the few stable organic nitrogen radicals, the DPPH• radical is dark violet in color. This method, which is based on the scavenging of the DPPH radical via antioxidants, is a redox reaction. When this radical interacts with hydrogen donors, it is reduced to hydrazine. The dark purple color of the methanolic DPPH• solution turns yellow with the addition of antioxidants, and the change in absorbance is measured spectrophotometrically. More illumination is determined by a greater reduction in the absorbance of the reaction mixture and indicates higher radical scavenging capacity.
For the DPPH free radical scavenging activity test, test compounds were prepared at 10 µM, 1 µM, 0.1 µM, and 0.01 µM concentrations, as shown in Figure 3. By using the absorbance changes determined because of the spectroscopic measurement, the % DPPH free radical scavenging activities of the synthesized compounds and reference materials (ascorbic acid and citric acid) were determined. The % antioxidant activities of all tested compounds were calculated based on the control.
This is a method based on measuring the scavenging effects of the DPPH (1,1-Diphenyl-2- picrylhydrazyl) radical, a stable organic nitrogen-centered free radical. To prepare the DPHH solution, 9.86 mg of DPPH was measured and topped up to 25 mL with methanol. A total of 100 µL of DPPH solution and 100 µL of the test solutions were placed in the test wells. Only 200 µL of methanol was used for blank reading; 100 µL of methanol and 100 µL of DPPH solution were used for control. After incubation, spectrophotometric reading was performed at 517 nm.

[2] = In vitro BBB permeability assay (PAMPA); assay type: in vitro ADME; conditions: for Type of BBB Permeation: PAMPA, PBS pH 7.4, donor 100 μM; for BBB permeability (in words): in vitro PAMPA
Method: As it is known, the ability of drugs to be used in diseases related to the central nervous system to pass the blood–brain barrier is an indispensable feature. These properties of the synthesized compounds were estimated using physicochemical parameters. […].
To observe the BBB permeability of the active compounds 3i and 3j, the parallel artificial membrane permeability assay (PAMPA) was performed as previously described. Briefly, the solutions of each compound were prepared in dimethyl sulfoxide (DMSO) at 10 mM and then diluted with PBS (Phosphate-Buffered Saline; pH = 7.4) to obtain the donor drug solution with the nominal final concentration of 100 μM (297 μL of buffer + 3 μL of DMSO drug solution). An amount of 100 μM is suitable for direct HPLC-DAD measurements. This solution was shaken for 1 h at room temperature in a 96-well polypropylene plate (Agilent, Waldbronn, Germany) and then filtered to avoid solid particles. The data were measured in 3 replicates on each plate. After the preparation of the solutions, the assay procedure was performed according to the kit method.

[3] = Cytotoxicity MTT assay in NIH/3T3 cell line; assay type: cell-based; conditions: mouse, NIH/3T3 mouse embryonic fibroblast cells, read-out: IC50 against NIH/3T3 cells (cytotoxicity)
Method: The NIH/3T3 mouse embryonic fibroblast cell line (ATCC® CRL-1658™, London, UK) was used for cytotoxicity assays. The incubation period of NIH/3T3 cells was based on the supplier’s recommendation. NIH/3T3 cells were seeded at 1 × 10^4 cells into each well of the 96-well plates. The MTT assay was carried out in accordance with the standards previously described.

Sequence of AChE (O42275 24-633): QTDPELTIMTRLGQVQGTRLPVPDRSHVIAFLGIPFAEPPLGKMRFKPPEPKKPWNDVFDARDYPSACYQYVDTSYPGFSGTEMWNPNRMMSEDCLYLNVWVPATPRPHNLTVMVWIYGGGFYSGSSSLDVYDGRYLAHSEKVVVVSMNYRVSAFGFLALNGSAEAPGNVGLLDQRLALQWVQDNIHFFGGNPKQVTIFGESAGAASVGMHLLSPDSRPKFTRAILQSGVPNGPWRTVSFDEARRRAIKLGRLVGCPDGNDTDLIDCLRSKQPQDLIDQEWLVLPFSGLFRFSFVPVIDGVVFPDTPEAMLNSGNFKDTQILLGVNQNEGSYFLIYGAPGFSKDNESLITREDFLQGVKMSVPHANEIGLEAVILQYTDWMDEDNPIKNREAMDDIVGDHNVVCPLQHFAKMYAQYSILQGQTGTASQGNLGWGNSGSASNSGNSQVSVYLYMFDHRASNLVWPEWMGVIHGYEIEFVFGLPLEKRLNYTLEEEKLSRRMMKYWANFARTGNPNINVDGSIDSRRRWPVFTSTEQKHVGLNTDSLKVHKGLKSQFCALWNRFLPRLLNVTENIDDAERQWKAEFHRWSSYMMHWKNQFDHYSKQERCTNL

| Structure (SMILES) | inhibition at 100 µM (AChE) [%] | inhibition at 1000 µM (AChE) [%] | BChE % Inhibition (BChE; 10^−3 M) [%] | BChE % Inhibition (BChE; 10^−4 M) [%] | % DPPH free radical scavenging (inhibition) ([1]; 0.01 µM) | % DPPH free radical scavenging (inhibition) ([1]; 0.1 µM) | % DPPH free radical scavenging (inhibition) ([1]; 1 µM) | % DPPH free radical scavenging (inhibition) ([1]; 10 µM) | Type of BBB Permeation [2] | BBB permeability (in words) [2] | IC50 [3] [µM] |
| --- | --- | --- | --- | --- | --- | --- | --- | --- | --- | --- | --- |
| CCNc1nnc(SCC(=O)c2ccc3c(c2)NC(=O)CS3)s1 [Compound 3a, 6-(2-((5-(Ethylamino)-1,3,4-thiadiazol-2-yl)sulfanyl)acetyl)-2H-benzo[b][1,4]thiazin-3(4H)-one] | 48.8 ± 0.8 | 78.2 ± 1.2 | 31.8 ± 0.8 | 25.1 ± 0.8 | – | – | – | – | – | – | – |
| CCCNc1nnc(SCC(=O)c2ccc3c(c2)NC(=O)CS3)s1 [Compound 3b, 6-(2-((5-(Propylamino)-1,3,4-thiadiazol-2-yl)sulfanyl)acetyl)-2H-benzo[b][1,4]thiazin-3(4H)-one] | 45.6 ± 0.9 | 75.4 ± 1.4 | 34.9 ± 0.8 | 26.9 ± 0.6 | – | – | – | – | – | – | – |
| CC(C)Nc1nnc(SCC(=O)c2ccc3c(c2)NC(=O)CS3)s1 [Compound 3c, 6-(2-((5-(Isopropylamino)-1,3,4-thiadiazol-2-yl)sulfanyl)acetyl)-2H-benzo[b][1,4]thiazin-3(4H)-one] | 40.1 ± 0.9 | 70.6 ± 1 | 29.1 ± 0.8 | 20.4 ± 0.7 | – | – | – | – | – | – | – |
| CCCCNc1nnc(SCC(=O)c2ccc3c(c2)NC(=O)CS3)s1 [Compound 3d, 6-(2-((5-(Butylamino)-1,3,4-thiadiazol-2-yl)sulfanyl)acetyl)-2H-benzo[b][1,4]thiazin-3(4H)-one] | 47.3 ± 0.9 | 72.7 ± 1.5 | 36.1 ± 0.9 | 21.4 ± 0.9 | – | – | – | – | – | – | – |
| CC(C)CNc1nnc(SCC(=O)c2ccc3c(c2)NC(=O)CS3)s1 [Compound 3e, 6-(2-((5-(Isobutylamino)-1,3,4-thiadiazol-2-yl)sulfanyl)acetyl)-2H-benzo[b][1,4]thiazin-3(4H)-one] | 46.2 ± 0.8 | 69.9 ± 1.2 | 37.3 ± 0.8 | 24.6 ± 0.9 | – | – | – | – | – | – | – |
| O=C1CSc2ccc(C(=O)CSc3nnc(NC4CCCCC4)s3)cc2N1 [Compound 3f, 6-(2-((5-(Cyclohexylamino)-1,3,4-thiadiazol-2-yl)sulfanyl)acetyl)-2H-benzo[b][1,4]thiazin-3(4H)-one] | 45 ± 1 | 65.4 ± 1.3 | 30.5 ± 0.8 | 26.2 ± 0.8 | – | – | – | – | – | – | – |
| O=C1CSc2ccc(C(=O)CSc3nnc(Nc4ccccc4)s3)cc2N1 [Compound 3g, 6-(2-((5-(Phenylamino)-1,3,4-thiadiazol-2-yl)sulfanyl)acetyl)-2H-benzo[b][1,4]thiazin-3(4H)-one] | 44.5 ± 0.8 | 80.1 ± 1.2 | 39.6 ± 0.9 | 24.8 ± 0.8 | – | – | – | – | – | – | – |
| Cc1ccc(Nc2nnc(SCC(=O)c3ccc4c(c3)NC(=O)CS4)s2)cc1 [Compound 3h, 6-(2-((5-(p-Tolylamino)-1,3,4-thiadiazol-2-yl)sulfanyl)acetyl)-2H-benzo[b][1,4]thiazin-3(4H)-one] | 42.7 ± 0.8 | 82.2 ± 1.8 | 35.6 ± 0.7 | 23.5 ± 0.7 | – | – | – | – | – | – | – |
| COc1ccc(Nc2nnc(SCC(=O)c3ccc4c(c3)NC(=O)CS4)s2)cc1 [Compound 3i, 6-(2-((5-((4-Methoxyphenyl)amino)-1,3,4-thiadiazol-2-yl)sulfanyl)acetyl)-2H-benzo[b][1,4]thiazin-3(4H)-one] | 90.5 ± 1.1 | 93.2 ± 1.4 | 40.2 ± 0.9 | 28.0 ± 0.8 | 65.00% ± 1.10 | 75.00% ± 1.80 | 82.00% ± 1.20 | 90.00% ± 2.40 | CNS+ High BBB permeation (High BBB permeation Pe (10^−6 cm s^−1) > 4.0) | high BBB permeability | 98.3 ± 3.98 |
| O=C1CSc2ccc(C(=O)CSc3nnc(Nc4ccc(Cl)cc4)s3)cc2N1 [Compound 3j, 6-(2-((5-((4-chlorophenyl)amino)-1,3,4-thiadiazol-2-yl)sulfanyl)acetyl)-2H benzo[b][1,4]thiazin-3(4H)-one] | 92.3 ± 1.3 | 96.5 ± 1.2 | 42.5 ± 0.9 | 27.9 ± 0.7 | 68.00% ± 1.50 | 73.00% ± 1.40 | 85.00% ± 2.00 | 92.00% ± 1.80 | CNS+ High BBB permeation (High BBB permeation Pe (10^−6 cm s^−1) > 4.0) | high BBB permeability | 160 ± 5.53 |
